The results in this text go back to patent US20130142831A1, “COMPOUNDS FOR INFLAMMATION AND IMMUNE-RELATED USES” (Synta Pharmaceuticals Corp., priority 2004, published 2013).

Where a name gives a salt, the structure may show the parent alone. Bounds are passed on as bounds.

What all share (type): cell-based
One experiment relates to IL-4. The experiment in a line: Cytokine inhibition in PHA-stimulated primary human PBMCs: IL-4. As to conditions: PBMCs stimulated with PHA; for IC50: Homo sapiens, PBMC, ELISA. The protocol: (§1) Cytokine production was measured using commercially available human ELISA assay kits (from Cell Science, Inc.) following the manufacturers instructions.
(In an ELISA, binding on a coated surface is turned into a signal by an enzyme label.)

The next experiment deals with TNF-α. The experiment in a line: Cytokine inhibition in PHA-stimulated primary human PBMCs: TNF-α. The following applies: PBMCs stimulated with PHA; for IC50: Homo sapiens, PBMC, ELISA. The protocol:
as §1

A further experiment deals with IL-10. The experiment in a line: Cytokine inhibition in PHA-stimulated primary human PBMCs: IL-10. The following applies: PBMC, PBMCs stimulated with PHA, ELISA. The method, then:
as §1

For a further experiment, the system named is GM-CSF. The experiment in a line: Cytokine inhibition in PHA-stimulated primary human PBMCs: GM-CSF. The following applies: PBMCs stimulated with PHA; for IC50: Homo sapiens, PBMC, ELISA. The protocol: as §1
The subject of the next experiment is IL-2. The experiment in a line: Cytokine inhibition in PHA-stimulated primary human PBMCs: IL-2. As to conditions: PBMCs stimulated with PHA; for IC50: Homo sapiens, PBMC, ELISA. The protocol: as §1
A further experiment deals with IL-5. The experiment in a line: Cytokine inhibition in PHA-stimulated primary human PBMCs: IL-5. The following applies: PBMCs stimulated with PHA; for IC50: Homo sapiens, PBMC, ELISA. The method, then: as §1
For the next experiment, the system named is IL-2 production. The experiment in a line: Inhibition of IL-2 production in PHA-activated Jurkat cells. As to conditions: Homo sapiens, PHA 2.5 μg/mL, 20 hours, bins given in nM. The procedure, abridged:
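Jurkat cells (0.5 million/well, 1% FBS) were preincubated with compound for 10 min, then stimulated with PHA (2.5 μg/mL final) for 20 h at 37 °C. Supernatant IL-2 was measured by ELISA. IC50 is the concentration giving 50% inhibition of maximal stimulated IL-2 relative to a non-stimulated control.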

The subject of a further experiment is INF-γ. The experiment in a line: Cytokine inhibition in PHA-stimulated primary human PBMCs: INF-γ. As to conditions: PBMCs stimulated with PHA; for IC50: Homo sapiens, PBMC, ELISA. The protocol: as §1
The test system of another experiment is IL-13. The experiment in a line: Cytokine inhibition in PHA-stimulated primary human PBMCs: IL-13. The following applies: PBMCs stimulated with PHA; for IC50: Homo sapiens, PBMC, ELISA. The method, then: as §1

Broadly, the IC50 is the point on the concentration scale where inhibition reaches its midpoint. Higher therefore signals lower potency. For `COc1ccc2c(c1)nc(C(F)(F)F)n2-c1ccc(NC(=O)c2c(F)ccc(F)c2F)cc1` [Compound 1, 2,3,6-Trifluoro-N-[4-(2-trifluoromethyl-5-methoxy-benzoimidazol-1-yl)-phenyl]-benzamide], the IC50 with IL-4 is 651 nM; in the experiment on TNF-α, 424 nM; in the experiment on IL-10 it was over 1000 nM; with GM-CSF it was 788 nM; in the experiment on IL-2 it was 29 nM; with IL-5, 26 nM. Also, the IC50 in the experiment on IL-2 production was under 100 nM; in the experiment on INF-γ, 95 nM; in the experiment on IL-13 it was 73 nM.

For the compound `COc1ccc2c(c1)nc(C(F)(F)F)n2-c1ccc(NC(=O)c2ccc3c(c2)OCO3)cc1` [Compound 75, Benzo[1,3]dioxole-5-carboxylic acid {N-[4-(2-trifluoromethyl-5-methoxy-benzoimidazol-1-yl)-phenyl]} amide], in the experiment on IL-4, the “Inhibition of IL-4 (in words)” value is “potent inhibitors”. The “Inhibition of TNF-α (in words)” value in the experiment with TNF-α is listed as “potent inhibitors”. For the same compound, the “Inhibition of GM-CSF (in words)” value in the experiment on GM-CSF is listed as “potent inhibitors”. In the experiment on IL-2, the “Inhibition of IL-2 (in words)” value is on record as “potent inhibitors”. For the same compound, in the experiment on IL-5, the “Inhibition of IL-5 (in words)” value is “potent inhibitors”. Further, the half-inhibitory concentration (IC50) with IL-2 production was in the range of 100 to 500 nM. The “Inhibition of INF-γ (in words)” value in the experiment with INF-γ is “potent inhibitors”. Also, in the experiment on IL-13, the “Inhibition of IL-13 (in words)” value is recorded as “potent inhibitors”.

`CC(=O)c1ccc2c(c1)nc(C(F)(F)F)n2-c1ccc(NC(=O)c2cccc(F)c2F)cc1` [Compound 133, 2,3-Difluoro-N-[4-(2-trifluoromethyl-5-acetyl-benzoimidazol-1-yl)-phenyl]-benzamide] displayed an IC50 in the experiment on IL-2 production of 100 to 500 nM.

In the case of `COc1ccc2c(c1)nc(C(F)(F)F)n2-c1ccc(NCc2c(F)cccc2F)cc1` [Compound 135, 2,6-Difluoro-N-[4-(2-trifluoromethyl-5-methoxy-benzoimidazol-1-yl)-phenyl]-benzylamine, HCl salt], the IC50 in the experiment with IL-4 came to 101 nM; in the experiment with TNF-α, 47 nM; with IL-10, 439 nM; with GM-CSF it was 99 nM; in the experiment on IL-2 it was 3 nM; with IL-5 it was 13 nM. Moreover, the IC50 with IL-2 production was under 100 nM; in the experiment with INF-γ it was 29 nM; with IL-13 it was 25 nM.
